In article PMC3284447, “In vivo antinociception of potent mu opioid agonist tetrapeptide analogues and comparison with a compact opioid agonist - neurokinin 1 receptor antagonist chimera” (Molecular Brain, 2012):
“Also recorded” adds a separate entry of the source. Where two headings read alike, the source gives them in different places. Square brackets hold non-standard residues; d marks the D form. Dmt = Cc1cc(O)cc(C)c1C[C@H](N)C(=O)O; dNMeA = CN[C@H](C)C(=O)O; Sar = CNCC(=O)O

Key:
male C57Bl6 mice [1] = experiment: hot water tail-flick test, tolerance after daily i.v. administration for 5 days; type: in vivo, mouse; conditions: for tolerance development after repetitive administration: daily for 5 days, i.v. (morphine i.p.), measured on day 5; for %MPE: ± SEM of 7-10 animals
Procedure: (§1) Nociceptive responses to thermally-induced pain were assessed by the hot water tail-flick test using male C57Bl6 mice. Animals (weighing 25-28 g) were maintained on a normal light-dark cycle and testing occurred during the light cycle. Mice were injected intravenously (i.v.) with the examined drug, dissolved in saline, at different doses. For the verification of drug-induced antinociceptive tolerance, the investigated compounds were administered (i.v.) once per day for 5 days (2 and 4 mg/kg for SBCHM01 and 4 mg/kg for both AN81 and BVD03) and the analgesic effect was measured on the first and the fifth day of the experiment. In each case (both acute and chronic treatment) the effect was measured over a minimum time period of 120 minutes. The antinociceptive effect was measured in triplicate at the following time points post-injection: 5, 15, 30, 60, 120 min (and 180 min for SBCHM01; due to the strong and long-lasting analgesic effect produced by AN81 (Figure 2C), there was no possibility to prolong the experiment, which - if prolonged - could in consequence cause major damage to the animal's tail, thus giving spurious nociceptive responses). Responses to thermal hot stimulus were assessed by the latency with which the mouse removed its tail from 55°C water. A cut-off time of 10 s was used in order to prevent tissue damage.
(§2) In order to compare the antinociceptive effect induced by the examined drugs, morphine was used as a standard reference.
(§3) Data are presented as means ± standard errors of the mean (SEM). All of the calculations and statistical analysis were performed using Prism 5.0 (Graph Pad Software, San Diego, CA, USA). The nociceptive scores were analyzed using a two-way Anova with Bonferroni's post hoc test. The p value (the value of probability) as well as inferential statistics - F test, which include information about the obtained magnitude or value of the test statistic and degrees of freedom, are represented.

male CD1 mice = experiment: radiant heat tail-flick test after s.c. administration; type: in vivo, mouse
Procedure: as §2
In order to determine the duration of drug activity, s.c. drug administration into male CD1 mice (27-33 g; Charles River Laboratories, Sulzfeld, Germany) was performed. In addition to a thermal nociceptive stimulus, the alternative light beam-based tail-flick assay was performed using an UB 37360 Ugo Basile analgesiometer (Ugo Basile s.r.l., Varese, Italy). The reaction time required by the mouse to remove its tail due to the radiant heat was measured and defined as the tail-flick latency. A cut-off time of 10 s was used in order to minimize tissue damage. Tail-flick latencies were measured before (baseline) and after drug s.c. administration (30 min, 1 h, 2 h, 3 h, 4 h, 5 h, 6 h and 7 h), the antinociceptive effect was scored as a percentage of the maximal possible effect (% MPE), according to formula presented above. Drugs were dissolved in sterile physiological saline (0.9%) and were administered s.c. in a volume of 10 μl per 1 g body weight. The animal procedures were approved by the Austrian Ethical Committee on Animal Care and Use in line with international laws and policies.
as §3

male C57Bl6 mice [2] = experiment: hot water tail-flick test, acute antinociception after i.v. administration; type: in vivo, mouse; conditions: for analgesic effect compared with morphine: morphine 4 mg/kg i.p.
Procedure: as §1, §2, §3

MOR [3] = tested on: MOR; parameters: method as in PMID 21413804; conditions: GPI tissue bioassay; means of 3-6 experiments ± SEM; cited from earlier work
DOR [4] = tested on: DOR; parameters: method as in PMID 21413804; conditions: MVD tissue bioassay; means of 3-6 experiments ± SEM; cited from earlier work
KOR = conditions: cited from earlier work
Source text: Table 1 In vitro functional activities and affinities of opioid- and opioid-NK1 ligands | column: KOR Ki (nM)^e, f

MOR [5] = target: MOR; parameters: method as in PMID 21413804; conditions: [^3H]DAMGO, rat brain membrane; cited from earlier work
DOR [6] = target: DOR; parameters: method as in PMID 21413804; conditions: [^3H]DSLET, rat brain membrane; cited from earlier work
MOR/DOR = conditions: cited from earlier work
Source text: (§4) The structure differs from BVD03 only in the amide nitrogen N-methyl group and side chain of the second residue in the peptide sequence (Figure 1). When an activity comparison is made between the two ...

[7] = cited from earlier work
Source text: as §4

MOR [8] = experiment: forskolin-stimulated cAMP accumulation, MOR agonism; type: cell-based; conditions: BVD03 in comparison to BVD02, EC50 cAMP
MOR [9] = experiment: MOR binding, displacement of [^3H]diprenorphine in HEK293 cells; conditions: BVD03 in comparison to BVD02, Ki
DOR [10] = experiment: DOR binding, displacement of [^3H]diprenorphine in HEK293 cells; conditions: BVD03 in comparison to BVD02, Ki
MOR [11] = conditions: forskolin-stimulated cAMP accumulation, agonist; cited from earlier work
Source text: (§5) Table 1 In vitro functional activities and affinities of opioid- and opioid-NK1 ligands | column: MOR EC50 (nM)^c, d || The potent antinociceptive effects of the investigated structures after peripheral administration indicate that all four peptidic compounds are able to cross the BBB. […] The observed effects are in agreement with earlier in vitro binding data obtained for these peptides (BVD02 ...

DOR [12] = conditions: forskolin-stimulated cAMP accumulation, agonist; cited from earlier work
Source text: as §5, with “DOR” for “MOR”

MOR [13] = conditions: [^3H]diprenorphine, HEK293 cells stably expressing MOR; cited from earlier work
Source text: as §5, with “Ki (nM)^e, f” for “EC50 (nM)^c, d”

DOR [14] = conditions: [^3H]diprenorphine, HEK293 cells stably expressing DOR; cited from earlier work
Source text: as §5, with “DOR Ki (nM)^e, f” for “MOR EC50 (nM)^c, d”

[15] = tested on: male, Sprague-Dawley rats; conditions: TY005, rats; i.t. administration, paw withdrawal test; cited from earlier work
Source text: Recently, Vanderah and coworkers reported the detailed in vivo evaluation of H-Tyr-D-Ala-Gly-Phe-Met-Pro-Leu-Trp-O-3',5'-Bn(CF3)2 (TY005) in several animal assays to define the role of this compound in thermal and tactile stimuli in uninjured, sham- and nerve-injured male, Sprague-Dawley rats. They observed that this compound was able to exert the desired dual activity in vivo. […] This is in contrast to the current study, where the hot water tail-flick assay served as a model for acute pain and in which the drug was injected intravenously. […] For a general clinical applicability, an important goal in pain research consists of the discovery and development of improved analgesic drugs which could be admi ...

[16] = i.v., 1 mg/kg, 30 min, ± SEM of 6-10 mice, p > 0.05 vs morphine
[17] = i.v., 0.5 mg/kg, 60 min, ± SEM of 6-10 mice, p > 0.05 vs morphine
[18] = [^3H]diprenorphine, HEK293 cells stably expressing KOR

Compound: CN1CC[C@]23c4c5ccc(O)c4O[C@H]2[C@@H](O)C=C[C@H]3[C@H]1C5 [morphine, reference compound]
- tolerance development after repetitive administration (male C57Bl6 mice [1]): mice had developed opioid-induced tolerance
- potency at 180 min (male C57Bl6 mice [1]; day 1, SBCHM01 2 mg/kg i.v., morphine 4 mg/kg i.p.): decrease in potency is clearly visible
- duration of analgesia (male CD1 mice; morphine s.c., more elevated doses relative to AN81): activity drops rapidly over time; also recorded: lost almost all activity over a time period of 2 hours

Compound: H-Dmt-D-Arg-Aba-Gly-NH2 [AN81]
- overall analgesic effect after systemic administration (male C57Bl6 mice [2]; compared among the peptides of the study): strongest analgesic effect
- analgesic effect compared with morphine (male C57Bl6 mice [2]; i.v., 0.1 mg/kg, 15 min and 120 min): significantly lower analgesic effect
- %MPE (male C57Bl6 mice [2]; i.v., 0.1 mg/kg, 2 h, ± SEM of 6-10 mice, p < 0.05 vs morphine): 61.2 ± 6.45%
- %MPE (male C57Bl6 mice [2]; [16]): 95 ± 2.89%
- %MPE (male C57Bl6 mice [2]; i.v., 4 mg/kg, 30 min, 6-10 mice, p > 0.05 vs morphine): 100%
- analgesic effect compared with morphine (male C57Bl6 mice [2]; i.v., 4, 1 and 0.5 mg/kg, all time points, p > 0.05): no difference in the analgesic effect
- tolerance compared to morphine (male C57Bl6 mice [1]; 5 days repetitive administration): markedly lower
- tolerance development after repetitive administration (male C57Bl6 mice [1]): leads to the development of tolerance; also recorded: partial preservation of analgesia observed after repetitive administration; also recorded: appeared to still induce the development of tolerance
- %MPE (male C57Bl6 mice [1]; day 5, i.v., 4 mg/kg daily, last time point (120 min), p < 0.001): 15.83% ± 4.40
- duration of antinociception (male CD1 mice; abstract: very low doses (0.1 mg/kg)): up to 7 hours
- %MPE (male CD1 mice; s.c., 1 mg/kg, 7 h, ± SEM of 5-6 mice): 38.4 ± 7.8%
- time of peak antinociception (male CD1 mice; s.c., 0.2, 0.5 and 1 mg/kg, 5-6 mice): 1 h
- duration of analgesia (male CD1 mice; s.c., 1, 0.5 and 0.2 mg/kg): up to 7 hours
- EC50 (MOR [3]): 0.00032 ± 4e-05 µM
- EC50 (DOR [4]): 0.00042 ± 2e-05 µM
- Ki (KOR; [^3H]U69,593, guinea pig brain membrane): 0.118 ± 0.012 µM
- Ki (MOR [5]): 0.00015 ± 2e-05 µM
- Ki (DOR [6]): 0.0006 ± 7e-05 µM
- in vitro agonist profile (MOR/DOR): superagonist profile; also recorded: full MOR/DOR agonist with subnanomolar affinity and tissue bioactivity

Compound: H-Dmt-D-Arg-Phe-Lys-NH2 [Dmt^1-DALDA]
- opioid analgesic potency [7]: potent opioid analgesic

Compound: H-Dmt-NMe-D-Ala-Aba-Gly-NH2 [BVD03]
- factor of superior MOR potency vs BVD02 (MOR [8]): 45
- factor of superior MOR binding vs BVD02 (MOR [9]): 4
- fold increase in DOR affinity vs BVD02 (DOR [10]): 26 fold
- %MPE (male C57Bl6 mice [2]; i.v., 0.25 mg/kg (similar at 4 and 0.5 mg/kg), 15 min): 35-40%
- %MPE (male C57Bl6 mice [2]; i.v., 0.25 mg/kg, 2 h, maximum level, ± SEM of 6-10 mice): 57.48 ± 17.57%
- %MPE (male C57Bl6 mice [2]; [17]): 88.41 ± 7.15%
- %MPE (male C57Bl6 mice [2]; i.v., 0.5 mg/kg, 120 min, ± SEM of 6-10 mice, p > 0.05 vs morphine): 84.29 ± 6.46%
- %MPE (male C57Bl6 mice [2]; i.v., 1 mg/kg, 60 min, ± SEM of 6-10 mice, p > 0.05 vs morphine): 89.21 ± 5.22%
- %MPE (male C57Bl6 mice [2]; i.v., 1 mg/kg, 120 min, ± SEM of 6-10 mice, p > 0.05 vs morphine): 86.69 ± 5.52%
- %MPE (male C57Bl6 mice [2]; i.v., 4 mg/kg, 60 min, ± SEM of 6-10 mice, p > 0.05 vs morphine): 68.78 ± 7.18%
- %MPE (male C57Bl6 mice [2]; i.v., 4 mg/kg, 120 min, ± SEM, vs morphine: BVD03 p < 0.05, SBCHM01 p > 0.05): 50.06 ± 6.84%
- antinociception after 2 hours (male C57Bl6 mice [2]; i.v., all doses except 0.25 mg/kg): drop in antinociception after 2 hours
- tolerance development after repetitive administration (male C57Bl6 mice [1]): leads to the development of tolerance
- %MPE (male C57Bl6 mice [1]; day 1, i.v., 4 mg/kg, 1 h): 68.78 ± 7.18%
- difference from morphine on first day (male C57Bl6 mice [1]; day 1, i.v., 4 mg/kg, 7-10 animals): significant differences (**p < 0.01) when compared to morphine
- %MPE (male C57Bl6 mice [1]; day 5, i.v., 4 mg/kg daily, 60 min): 18.14 ± 6.84%
- EC50 (MOR [11]): 0.00174 ± 0.00034 nM
- EC50 (DOR [12]): 0.016 ± 0.009 nM
- Ki (MOR [13]): 0.015 ± 0.002 µM
- Ki (DOR [14]): 0.005 ± 0.003 µM
- Ki (KOR; [18]): > 1000 µM

Compound: H-Tyr-D-Ala-Gly-Phe-Met-Pro-Leu-Trp-O-3',5'-Bn(CF3)2 [TY005, hybrid opioid-NK1 octapeptide ligand]
- antihyperalgesic tolerance [15]: development of antihyperalgesic tolerance could be suppressed; also recorded: inhibition of antihyperalgesic tolerance; also recorded: able to attenuate tolerance development

Compound: H-[Dmt][dNMeA]F[Sar]-NH2 [BVD02, opioid tetrapeptide, "ring opened" analogue]
- %MPE (male C57Bl6 mice [2]; [17]): 56.77 ± 13.57%
- %MPE (male C57Bl6 mice [2]; [16]): 74.77 ± 13.63%
- %MPE (male C57Bl6 mice [2]; i.v., 5 mg/kg, 15 min post-injection, 6-10 mice, unchanged within the next hour): 100%
- %MPE (male C57Bl6 mice [2]; i.v., 5 mg/kg, 2 h, ± SEM of 6-10 mice, p > 0.05): 96 ± 4%
- antinociceptive activity at 120 min compared to morphine (male C57Bl6 mice [2]; i.v., 1 and 0.5 mg/kg, 120 min, p < 0.001 vs morphine): dramatic reduction of activity
- EC50 (MOR [11]): 0.079 ± 0.0065 nM
- EC50 (DOR [12]): 4400 ± 500 nM
- Ki (MOR [13]): 0.06 ± 0.003 µM
- Ki (DOR [14]): 0.13 ± 0.005 µM
- Ki (KOR; [18]): > 1000 µM
